Data published in publication PMC7463999, “Antioxidant, Anti-inflammatory and Neuroprotective Profiles of Novel 1,4-Dihydropyridine Derivatives for the Treatment of Alzheimer’s Disease” (Antioxidants, 2020).
Where “and” joins values, the source holds several entries; their conditions need not be identical. Equal values may be shown once. Read-outs that look alike come from different tables or passages of the source.

Key:
[1] = Oxygen Radical Absorbance Capacity (ORAC) assay; settings: Trolox equivalents, ORAC of Trolox = 1.0; AAPH, fluorescein
[2] = test system: primary glial cultures stimulated with LPS; assay: Nitrite production reduction (Griess) in LPS-stimulated mixed primary glial cultures; type: cell-based, rat; settings: Rattus norvegicus; LPS 1 μg/mL, 24 h pre-incubation, 18 h co-incubation
[3] = target: GSK-3β (Homo sapiens, UniProt P49841); assay: GSK-3β inhibition, Kinase-Glo luminescence assay
[4] = test system: neuroblastoma cell line SH-SY5Y; assay: Cytotoxicity (neurotoxicity) in SH-SY5Y, MTT; settings: 24 h
Procedure: LD50 in SH-SY5Y and primary glial culture cells
(§1) cell line SH-SY5Y and primary glial cultures. Viability was measured as
(§2) MTT reduction in presence of increasing concentrations of derivatives.
(§3) Values are expressed as LD50 calculated from dose-response curves of four
(§4) different concentrations. Data are expressed as mean  SEM of five
different experiments in triplicate.
(§5) SH-SY5Y or primary glial cells were cultured in 96-well plates for 24 h. Then, cells
(§6) were treated with the compounds at 10, 30 and 100 µM in the corresponding culture media
(§7) with 1 % FBS After 24 h, cell viability was assessed by the MTT-reduction assay. Control
(§8) cells were incubated with the same concentration of DMSO (0.1 % final concentration)
Viability assay by MTT-reduction
(§9) SH-SY5Y, primary glial culture cells and rat hippocampal slices viability was
(§10) measured by the MTT assay [11]. This method is based on the cleavage of the tetrazolium
(§11) ring of MTT by active dehydrogenases, generating a formazan precipitate. At the end of
(§12) the neuroprotection or toxicity experiments, an MTT solution was added to each well to
(§13) reach a final concentration of 0.5 mg/mL. After 2 additional hours of incubation, the
(§14) solution was replaced by 100 or 300 µL of DMSO to solubilize the formazan precipitate.
(§15) in control cells was considered as 100 % of cell survival and used to reference all

[5] = Blood-brain barrier permeation assay (PAMPA), porcine brain lipid; type: in vitro ADME; settings: for PAMPA Prediction: BBB permeability class from Pe; for Prediction of the BBB passive permeability: PAMPA control compounds
[6] = test system: blood-brain barrier (passive diffusion); assay: as above; type: in vitro ADME
[7] = test system: primary glial cultures; assay: Cytotoxicity (gliotoxicity) in primary glial cultures, MTT; settings: 24 h
Procedure: as §1, §2, §3, §4
different experiments in triplicate.
Mixed glial cultures were obtained from cerebral cortex of 2-5-day-old Sprague-Dawley rats. After removal of blood vessels and meninges, the forebrains were dissociated in DMEM/F12 medium. After mechanical dissociation, cells were plated (3x10^5 cells/ml) in DMEM/F12 medium with 20 % fetal bovine serum (FBS) and 1 % penicillin/streptomycin (10,000 units), at 37 °C and in a 5 % CO2-supplemented air atmosphere. After 5 days, medium was substituted by DMEM/F12 medium with 10 %
FBS. Cells were cultured for 7-10 days before treatment.
as §5, §6, §7, §8
Viability assay by MTT-reduction
as §9
measured by the MTT assay [11].

[8] = test system: voltage-dependent Ca^2+ channels (VDCC); assay: Voltage dependent calcium channels blockade assay (Fluo-4, 70 mM K+); type: cell-based, human; settings: compounds at 10 μM, SH-SY5Y, basal = 100% response
Procedure: Free cytosolic Ca^2+ was measured using the fluorescence Ca^2+ indicator Fluo-4/AM. SH-SY5Y cells were seeded in 96-well black bottom transparent plates at a density of 60,000 cells per well and cultured until they reach confluence. Cells were incubated with the Ca^2+ sensitive dye Fluo-4/AM at 5 µM in Krebs-HEPES buffer (KH) (145 mM NaCl, 4.9 mM KCl, 1.2 mM MgCl2, 2 mM CaCl2, 10 mM HEPES, 11 mM glucose, pH 7.4), and 0.05% pluronic acid, for 1 h at 37 °C in the dark. Then, cells were washed twice with KH solution to remove the excess of probe and compounds in solution were added. Test compounds at 10 µM were incubated 10 min before K^+ 70 mM was applied to trigger cytosolic Ca^2+ increase. Fluorescence was measured in a fluorescence microplate reader (FLUOstar Optima, BMG, Ortenberg, Baden-Wuerttemberg, Germany) at excitation and emission wavelengths 485 and 520 nm, respectively. To normalize Fluo-4 signals, Triton X-100 (5%) and subsequently MnCl2 1 M were applied to the cells to register maximal and minimal fluorescence, respectively. Data were calculated as a percentage of Fluorescence increment with respect to Fmax − Fmin. The percentage of response was calculated considering basal conditions as 100% response.
Voltage dependent Calcium Channel Blockade Assay
Free cytosolic Ca2+ was measured using the fluorescence Ca2+ indicator Fluo-4/AM.
SH-SY5Y cells were seeded in 96-well black bottom transparent plates at a density of 60,000 cells per well until reaching confluence. Cells were incubated with the Ca2+ sensitive dye fluo-4 AM at 5 µM in Krebs-Hepes buffer (KH) (145 mM NaCl, 4.9 mM KCl, 1.2 mM MgCl2, 2 mM CaCl2, 10 mM HEPES, 11 mM glucose, pH 7.4), and 0.05 % pluronic acid, for 1 h at 37 °C in the dark. Then, cells were washed twice with KH solution to remove the excess of probe and compounds in solution were added. Tested compounds at 10 µM were incubated 10 min before K+ 70 mM was applied to evoke the increment of cytosolic Ca2+. The experiments were analyzed at excitation and emission wavelengths of 485 and 520 nm, respectively, and fluorescence was measured in a fluorescence microplate reader (FLUOstar Optima, BMG, Germany). To normalize Fluo-4 signals, Triton X-100 (5 %) and subsequently MnCl2 1 M were applied to cells for registering both maximal and minimal fluorescence, respectively. Data were calculated as % F increment respect to Fmax – Fmin. % of blockade was calculated considering basal conditions as 100 % response.
Then, the donor filter plate was carefully put on the acceptor plate to form a “sandwich”, which was left undisturbed for 4 h at 25 °C. During this time, the compounds diffused from the donor plate through the polar brain lipid membrane (area = 0.28 cm2) into the acceptor plate. After incubation, the donor plate was carefully removed. UV plate reader determined the concentration of compounds and commercial drugs in both acceptor and […]

[9] = DPPH reduction assay; settings: DPPH 100 µM, 1 h in the dark
Procedure: The final solution was incubated during 1 h in the dark. […] Results are expressed as a percentage of DPPH reduction by subtracting blank absorbance (Absblank) to sample absorbance (Abssample) and corrected by control absorbance, (Abscontrol, DPPH alone, as expressed below: % DPPH reduction = [100 − ((Abssample − Absblank) × 100/Abscontrol)](1)
Briefly, the compounds under assay (150 µL) at the desired concentration (1, 10, 60 and 100 µM) in methanol/water (80/20) were added to a solution of DPPH in methanol/water (80/20) (150 µL, 100 µM), in a clear bottom 96-well plate, and the final solution was incubated 1 h in the dark. Then, DPPH absorbance of blank (methanol/water), control
Optima plate-reader (BMG Labtech, Ortenberg, Germany) in duplicate.
Results are expressed as % of absorbance (Abs) reduction of control after subtracting blank absorbance, as expressed
% DPPH reduction = [100 – (Abssample-Absblank) x 100]/Abscontrol

[10] = test system: SH-SY5Y human neuroblastoma cells; assay: Neuroprotection against okadaic acid (tau hyperphosphorylation), MTT; settings: 18 h; for percentage of protection, okadaic acid toxicity: 1 μM, OA 20 nM; for viability at 1 µM: Homo sapiens, SH-SY5Y, read-out: cell viability (percentage survival), okadaic acid toxicity
Procedure: (§16) Cells were pre-incubated with the corresponding compound at 1 μM in neuroblastoma culture medium. After 24 h, the medium was removed and replaced with 1% FBS neuroblastoma culture media containing the corresponding compound at 1 µM and the toxic stimuli, namely a mixture of rotenone and oligomycin A (R/O, 30 μM/10 μM, respectively), okadaic acid (OA) at 20 nM or a high concentration of KCl (70 mM). Cells were co-incubated for further 24 h with the R/O mixture or KCl solution, or 18 h with the OA solution. […] Control cells were incubated with the same amount of dimethyl sulfoxide (DMSO) without any drug. After the co-incubation period, cell viability was assessed by the 3-(4,5-dimethylthiazol-2-yl)-2,5-diphenyltetrazolium bromide (MTT) reduction method [56]; basal condition was considered as 100% survival.
(§17) Neuroprotection in the SH-SY5Y neuroblastoma cell line
(§18) A pre- and co-incubation protocol was followed. Cells were pre-incubated with the
(§19) corresponding compound at 1 M in neuroblastoma culture medium. After 24 h, the
(§20) medium was removed and replaced with 1% FBS neuroblastoma culture media
(§21) containing the corresponding compound at 1 µM and the toxic stimuli, namely a mixture
(§22) of rotenone and oligomycin A (30 M/10 M respectively), okadaic acid at 20 nM or a
(§23) high concentration of potassium chloride (70 mM). Cells were co-incubated for further
(§24) 24 h with the rotenone and oligomycin A or potassium chloride solution, or 18 h with the
(§25) okadaic acid solution. Control cells were incubated with the same amount of DMSO
(§26) and reference compounds in the rotenone-oligomycin A, okadaic acid or high
(§27) concentration of potassium models respectively. After the co-incubation period, cell
(§28) viability was assessed by the MTT-reduction method [11] considering basal conditions
Viability assay by MTT-reduction
as §9, §10, §11, §12, §13, §14, §15
(§29) treatments. The percentage of protection was calculated as follows: the percentage of cell
(§30) survival obtained with the toxic stimuli-treated cells subtracted to 100 was normalized to
(§31) 100 % of cell death. The percentage of protection was obtained by subtracting the
(§32) percentage of cell death in presence of the tested compound to 100 %.

[11] = test system: SH-SY5Y human neuroblastoma cells; assay: Neuroprotection against rotenone/oligomycin A (oxidative stress), MTT; settings: 1 μM, rotenone 30 μM / oligomycin A 10 μM, 24 h; for percentage of survival, R/O toxicity: basal = 100%
Procedure: as §16, §17, §18, §19, §20, §21, §22, §23, §24, §25, §26, §27, §28
Viability assay by MTT-reduction
as §9, §10, §11, §12, §13, §14, §15, §29, §30, §31, §32

[12] = PAMPA, 100 µM, PBS pH 7.4, 4 h at 25 °C, mean ± SEM, read-out: PAMPA Pe
[13] = pH 7.4, PAMPA control compounds, Pe ± SD, read-out: Pe ± SD

Sequence of GSK-3β (P49841 whole entry): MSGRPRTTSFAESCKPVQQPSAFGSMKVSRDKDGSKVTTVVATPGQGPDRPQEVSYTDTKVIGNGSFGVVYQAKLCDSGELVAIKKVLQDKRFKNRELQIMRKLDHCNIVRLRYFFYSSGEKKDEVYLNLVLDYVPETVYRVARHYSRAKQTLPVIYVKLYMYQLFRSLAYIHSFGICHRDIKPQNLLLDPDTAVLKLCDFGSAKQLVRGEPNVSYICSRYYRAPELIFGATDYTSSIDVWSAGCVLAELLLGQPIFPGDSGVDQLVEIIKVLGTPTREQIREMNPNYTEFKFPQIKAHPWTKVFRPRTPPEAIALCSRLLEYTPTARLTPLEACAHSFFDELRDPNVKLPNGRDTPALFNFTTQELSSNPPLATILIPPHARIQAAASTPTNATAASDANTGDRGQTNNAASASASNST

SMILES	ORAC (T. Eq.) [1]	EC50 [2] [µM]	IC50 [3] [µM]	Ki [3] [µM]	SH-SY5Y LD50 [4] [µM]	PAMPA Prediction [5]	Papp at 4 h, 100 µM [6, 12] [×10⁻⁶ cm/s]	Glial cultures LD50 [7] [µM]	VDCC % Response [8]	IC50 [9] [µM]	percentage of protection, okadaic acid toxicity [10]	percentage of survival, R/O toxicity [11] [%]	viability at 1 µM [10] [%]	Prediction of the BBB passive permeability [5]	Papp at 4 h, 100 µM [6, 13] [×10⁻⁶ cm/s]	fold more potent GSK-3β inhibitor than 4l ([3]; ratio of IC50 values) [fold]	percentage of protection, R/O toxicity [11] [%]
Cc1[nH]nc2c1C(c1ccccc1Br)C(C#N)=C(N)N2 (stereo not drawn) [4f]	1.00 ± 0.16 T. Eq.	10.1 ± 0.72	0.83 ± 0.3	0.58	> 100	CNS+	10.1 ± 5.4	> 100	7.39% and 7.39 ± 2.0%	21.6 ± 3.99	over 50%						
Cc1[nH]nc2c1C(c1ccc([N+](=O)[O-])cc1)C(C#N)=C(N)N2 (stereo not drawn) [4i]	0.96 ± 0.05 T. Eq.	6.1 ± 1.84	3.09 ± 0.4	2.17	> 100	CNS±	3.1 ± 1	> 100	73.2 ± 2.9%	23.2 ± 4.31							
Cc1[nH]nc2c1C(c1ccccc1Cl)C(C#N)=C(N)N2 (stereo not drawn) [4c]	0.94 T. Eq. and 0.94 ± 0.04 T. Eq.	14.4 ± 2.19	1.51 ± 1.1	1.06	> 100	CNS+	9.4 ± 3.5	> 100	58.7 ± 6.8%	23.3 ± 2.6	over 50%	81.3	74				
CN1C(C(=O)Nc2ccccn2)=C(O)c2ccccc2S1(=O)=O [Piroxicam, reference compound]														CNS (+/-)	3.3 ± 0.1		
Cc1[nH]nc2c1C(c1cccnc1)C(C#N)=C(N)N2 (stereo not drawn) [4k]	1.03 ± 0.16 T. Eq.	22.3 ± 3.42	4.53 ± 2.1	3.18	> 100	CNS-	0.7 ± 0.9	> 100	85.6% and 85.6 ± 5.3%	17.1 ± 2.18	over 50%						
Cc1[nH]nc2c1C(c1cccs1)C(C#N)=C(N)N2 (stereo not drawn) [4j]	2.93 T. Eq. and 2.93 ± 0.15 T. Eq.	5.4 ± 0.27	1.74 ± 1	1.22	> 100	CNS+	8.8 ± 4.4	> 100	60.6 ± 6.8%	20.9 ± 4.23			64			5	
Cc1[nH]nc2c1C(c1cccc([N+](=O)[O-])c1)C(C#N)=C(N)N2 (stereo not drawn) [4h]	0.73 T. Eq. and 0.73 ± 0.09 T. Eq.	3.5 ± 0.29	0.82 ± 0.2	0.57	> 100	CNS±	2.1 ± 1	> 100	75.5 ± 2.7%	24.7 ± 4.03	34.6%		60.8				
Cc1[nH]nc2c1C(c1ccc(F)cc1)C(C#N)=C(N)N2 (stereo not drawn) [4b]	1.86 T. Eq. and 1.86 ± 0.08 T. Eq.	5.7 ± 0.62	2.14 ± 1.1	1.5	> 100	CNS+	4.8 ± 2.6	> 100	48.5 ± 7.6%	22.8 ± 6.68		84.3					62.7
Cc1[nH]nc2c1C(c1ccc(Cl)cc1)C(C#N)=C(N)N2 (stereo not drawn) [4e]	0.66 T. Eq. and 0.66 ± 0.07 T. Eq.	4.4 ± 0.35	1.94 ± 0.5	1.36	> 100	CNS+	12.9 ± 3.6	> 100	6.46% and 6.46 ± 1.6%	20.9 ± 5.91		73.6	64.6				
CC(=O)[C@H]1CC[C@H]2[C@@H]3CCC4=CC(=O)CC[C@]4(C)[C@H]3CC[C@]12C [Progesterone, reference compound]														CNS (+/-)	2.2 ± 2.8		
Cn1c(=O)c2c(ncn2C)n(C)c1=O [Caffeine, reference compound]														CNS (-)			
COCCOC(=O)C1=C(C)NC(C)=C(C(=O)OC(C)C)C1c1cccc([N+](=O)[O-])c1 (stereo not drawn) [Nimodipine, reference compound]									51.0 ± 2.6%								
O=C1O[C@H]([C@@H](O)CO)C(O)=C1O [Ascorbic ac., Ascorbic acid, reference compound]										61.9 ± 4.96							
Cc1[nH]nc2c1C(c1ccccc1)C(C#N)=C(N)N2 (stereo not drawn) [4a]	0.69 ± 0.04 T. Eq.	5.2 ± 1.89			> 100	CNS+	8 ± 1.5	> 100	72.1 ± 5.8%	25.2 ± 7.91							
